According to US20250320496A1, “MODULATION OF ABCB11 GENE TRANSCRIPTION USING ANTISENSE OLIGONUCLEOTIDES TARGETING REGULATORY RNAS” (CAMP4 Therapeutics Corporation, priority 2022, published 2025):
Strand notation (5' to 3'): a small letter for the sugar, then the base; units joined by * are phosphorothioate-linked, units joined directly phosphodiester-linked; [ ] holds rarer units or linkages, { } end groups; capitals alone tell only the bases. e = 2'-O-(2-methoxyethyl) (MOE); [5mC] = 5-methylcytosine

Assays:
human ABCB11 mRNA = assay: ASO treatment of primary human hepatocytes (PHH), ABCB11 mRNA by RT-qPCR normalized to B2M; assay type: cell-based; set-up: ABCB11 mRNA, dose titration: unit of the concentration uncertain; settings: for ABCB11 mRNA expression, dose response / ABCB11 mRNA, dose titration: PHHs; for ABCB11 mRNA expression, dose response: Day 4 after ASO treatment (FIG. 5A); for ABCB11 mRNA, dose titration: CO-3986 and CO-4529 tested at 2.5 (unit uncertain), 5 μM, and 10 μM
Method in brief: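 ABCB11 mRNA was quantified by Taqman RT-qPCR relative to B2M and expressed as fold over untreated cells. Cells were cryopreserved primary human hepatocytes given ASO in Matrigel-supplemented medium 4 h after plating, at 1.25, 2.5, 5 or 10 μM (5 μM for screening), and harvested after 72 hrs.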

CYP7A1 mRNA = assay: ASO treatment of primary human hepatocytes (PHH), CYP7A1 mRNA by RT-qPCR normalized to B2M; assay type: cell-based; settings: for CYP7A1 mRNA levels, dose response: PHHs, Day 4, relative to B2M (FIG. 5B); for expression of CYP7A1 mRNA, dose response: PHHs (FIG. 3B)
Protocol: Primary human hepatocytes (PHH) were thawed using Lonza Human Cryopreserved Hepatocyte Thawing Medium and plated in 96-well collagen-coated plates (5.5-6.0×10^4 cells per well). Four hours later, the media was replaced with sterile-filtered QualGro™ Hepatocyte Culture Medium (BioIVT) containing antibiotic supplement, 0.3 mg/ml Matrigel® matrix (Corning®), and ASO at the desired concentration (e.g., 1.25 μM, 2.5 μM, 5 μM, or 10 μM). […] Plates were frozen at-80° C. during cell lysis. After thawing, total RNA was isolated using the Qiagen RNEasy kit as instructed by manufacturer. cDNA (random-primed) was synthesized from 10 μl of RNA using the LifeTech High Capacity cDNA Reverse Transcription kit. 2 μl of cDNA was used for reverse transcription-quantitative PCR (RT-qPCR) analyses using standard Taqman” reagents from Applied Biosystems™ to measure ABCB11 and CYP7A1 gene expression. Gene expression data was normalized to the housekeeper gene, beta-2-microglobulin (B2M).
ASOs targeting ABCB11 regRNA enhance bile acid efflux in vitro. Levels of cholesterol 7 alpha-hydroxylase (CYP7A1) mRNA (or the enzymatic activity of its protein) can be used to track changes in bile acid synthesis in the liver since the CYP7A1 protein is the first and rate-limiting step in the conversion of cholesterol to bile acids (see, e.g., Chiang and Ferrel (2020) Liver Res. 4 (2): 47-63). […] Conversely, when bile acid levels reach high levels, this gene is actively down regulated. These changes are mediated by farnesoid X receptor (FXR), a sensor of bile acid levels, and the master regulator of intracellular bile acid concentrations. CYP7A1 mRNA can therefore be used as a surrogate for monitoring changes in hepatic bile acids in response to ASO treatment. Accordingly, an ASO that successfully increases ABCB11 expression would be expected to promote increased bile acid efflux, thus reducing bile acid levels in the cell. In a wild-type (non-disease) setting, this reduction promotes a compensatory increase in CYP7A1 to restore normal levels.

[1] = PHHs treated for two days, collected Day 2 to Day 7, result on Day 4

| Substance | ABCB11 mRNA expression, dose response (human ABCB11 mRNA) | ABCB11 mRNA FC (5 μM ASO vs. UNT) (human ABCB11 mRNA; primary human hepatocytes, 5 μM ASO, normalized to untreated PHHs (UNT)) | CYP7A1 mRNA levels, dose response (CYP7A1 mRNA) | ABCB11 mRNA, dose titration (human ABCB11 mRNA) | expression of CYP7A1 mRNA, dose response (CYP7A1 mRNA) | ABCB11 mRNA, time course (human ABCB11 mRNA; [1]) | CYP7A1 mRNA, time course (CYP7A1 mRNA; [1]) |
| --- | --- | --- | --- | --- | --- | --- | --- |
| CO-4513: ASO targeting a downstream regRNA from enhancer RR62_v2 (antisense eG*eT*eG*eA*eG*eG*e[5mC]*eA*eT*e[5mC]*eA*eG*eG*eT*eA*eA*eG*eT*eT*e[5mC]) | dose-responsive increase | 1.122 fold change | dose-responsive increases |  |  |  |  |
| CO-4556: ASO targeting eRNA RR74 (RR74_v1) of human ABCB11 (antisense eG*eA*eA*eG*eG*eA*e[5mC]*eA*e[5mC]*eA*eA*eT*eT*eT*e[5mC]*eT*eG*eT*eA*eG) | dose-responsive increase |  | dose-responsive increases | dose-dependent increase | increased expression of CYP7A1 mRNA in a dose-dependent manner |  |  |
| CO-4535: ASO targeting eRNA RR64 (RR64_v2) of human ABCB11 (antisense eT*eG*eG*e[5mC]*eG*eT*eT*eA*eT*eT*eA*eA*eT*eT*e[5mC]*eT*eA*e[5mC]*eA*eG) | dose-responsive increase |  | dose-responsive increases | dose-dependent increase | increased expression of CYP7A1 mRNA in a dose-dependent manner | strong ABCB11 and CYP7A1 mRNA upregulation | strong ABCB11 and CYP7A1 mRNA upregulation |
